Measurements as given in ChEMBL document CHEMBL4602659, “β,β-Dimethylacrylshikonin Induces Apoptosis in Melanoma Cell Lines by NOXA Upregulation” (J Nat Prod, 2020).
The source made the active and inactive calls. The rule behind the calls is not given here.

Key:
SBcl2 [1] = test: Induction of apoptosis in human SBcl2 cells assessed as effect on BAD protein expression at IC50 concentration after 24 hrs by Western blot analysis; assay type: functional, cell-based
MUGMel2 [2] = test: Induction of apoptosis in human MUGMel2 cells assessed as up regulation of NOXA at IC50 concentration after 6 to 24 hrs by RT-qPCR analysis relative to control; assay type: functional
MUGMel1 [3] = test: Induction of apoptosis in human MUGMel1 cells assessed as late apoptotic cells at IC50 concentration after 24 hrs by Annexin V/SYTOX Green based flow cytometric analysis (reference value: 1.18%); assay type: functional
SBcl2 [4] = test: Induction of apoptosis in human SBcl2 cells assessed as late apoptotic cells at IC50 concentration after 24 hrs by Annexin V/SYTOX Green based flow cytometric analysis (reference value: 22.96%); assay type: functional
WM164 [5] = test: Induction of apoptosis in human WM164 cells assessed as necrotic cells at IC50 concentration after 24 hrs by Annexin V/SYTOX Green based flow cytometric analysis (reference value: 0.85%); assay type: functional
WM793 [6] = test: Induction of apoptosis in human WM793 cells assessed as effect on BAX mRNA expression at IC50 concentration after 6 to 24 hrs by RT-qPCR analysis; assay type: functional, cell-based
WM793 [7] = test: Induction of apoptosis in human WM793 cells assessed as necrotic cells at IC50 concentration after 24 hrs by Annexin V/SYTOX Green based flow cytometric analysis (reference value: 0.17%); assay type: functional
MRC5 = test: Cytotoxicity against human MRC5 cells assessed as reduction in cell viability after 72 hrs by EZ4U reagent based spectrophotometric method; assay type: functional
MUGMel1 [8] = test: Cytotoxicity against human MUGMel1 cells assessed as reduction in cell viability after 48 hrs by EZ4U reagent based spectrophotometric method; assay type: functional; settings: MUGMel1, 48 h
MUGMel2 [9] = test: Cytotoxicity against human MUGMel2 cells harboring NRAS pQ61K mutant assessed as reduction in cell viability after 24 hrs by EZ4U reagent based spectrophotometric method; assay type: functional; settings: MUGMel2, 24 h
MUGMel1 [10] = test: Induction of apoptosis in human MUGMel1 cells assessed as early apoptotic cells at IC50 concentration after 24 hrs by Annexin V/SYTOX Green based flow cytometric analysis (reference value: 3.27%); assay type: functional
MUGMel2 [11] = test: Induction of apoptosis in human MUGMel2 cells assessed as late apoptotic cells at IC50 concentration after 24 hrs by Annexin V/SYTOX Green based flow cytometric analysis (reference value: 9.64%); assay type: functional
SBcl2 [12] = test: Induction of apoptosis in human SBcl2 cells assessed as effect on BAX protein expression at IC50 concentration after 24 hrs by Western blot analysis; assay type: functional, cell-based
SBcl2 [13] = test: Induction of apoptosis in human SBcl2 cells assessed as up regulation of PMAIP1 at IC50 concentration after 24 hrs by mRNA sequencing method relative to control; assay type: functional
WM164 [14] = test: Cytotoxicity against human WM164 cells harboring BRAF V600E mutant assessed as reduction in cell viability after 72 hrs by EZ4U reagent based spectrophotometric method; assay type: functional; settings: WM164, 72 h
SBcl2 [15] = test: Induction of apoptosis in human SBcl2 cells assessed as early apoptotic cells at IC50 concentration after 6 hrs by Annexin V/SYTOX Green based flow cytometric analysis (reference value: 4.26%); assay type: functional
MUGMel2 [16] = test: Induction of apoptosis in human MUGMel2 cells assessed as early apoptotic cells at IC50 concentration after 6 hrs by Annexin V/SYTOX Green based flow cytometric analysis (reference value: 2.89%); assay type: functional

SMILES: CC(C)=CC[C@@H](OC(=O)C=C(C)C)C1=CC(=O)c2c(O)ccc(O)c2C1=O [DIMETHYLACRYLSHIKONIN]
- Activity (SBcl2 [1]): inactive
- fold change (FC) (MUGMel2 [2]): 6
- Activity (MUGMel1 [3]): 10.11%
- Activity (SBcl2 [4]): 77.12%
- Activity (WM164 [5]): 0.52%
- Activity (WM793 [6]): inactive
- Activity (WM793 [7]): 0.22%
- IC50 (MRC5): Not Active
- IC50 (MUGMel1 [8]): 1100 nM
- IC50 (MUGMel2 [9]): 5.1 µM
- Activity (MUGMel1 [10]): 40.28%
- Activity (MUGMel2 [11]): 43.89%
- Activity (SBcl2 [12]): inactive
- fold change (FC) (SBcl2 [13]): 1.37
- IC50 (WM164 [14]): 2400 nM
- Activity (SBcl2 [15]): 8.44%
- Activity (MUGMel2 [16]): 10.56%
